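Growth conditions: 96-well plates. Treatment: test compound, 48 hours, 5 concentrations. Analysis: linear interpolation between bracketing concentrations; unreached endpoints set to highest concentration. At the GI50, growth is halved. The concentration for full growth arrest is given as TGI.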
Key:
Assay in all cases: inhibition of tumour cell growth, NCI panel, 48 h
SK-OV-3 ovarian = system: SK-OV-3 ovarian
OVCAR-8 ovarian = system: OVCAR-8 ovarian
SK-MEL-5 melanoma = system: SK-MEL-5 melanoma
RXF 393 renal = system: RXF 393 renal
UACC-62 melanoma = system: UACC-62 melanoma
DU-145 prostate = system: DU-145 prostate
OVCAR-3 ovarian = system: OVCAR-3 ovarian
LOX IMVI melanoma = system: LOX IMVI melanoma
UACC-257 melanoma = system: UACC-257 melanoma
SF-295 CNS = system: SF-295 CNS
EKVX NSCLC = system: EKVX NSCLC
CAKI-1 renal = system: CAKI-1 renal
CCRF-CEM leukemia = system: CCRF-CEM leukemia
SF-539 CNS = system: SF-539 CNS
U251 CNS = system: U251 CNS
HCT-116 colon = system: HCT-116 colon
TK-10 renal = system: TK-10 renal
HCT-15 colon = system: HCT-15 colon
SK-MEL-2 melanoma = system: SK-MEL-2 melanoma
IGROV1 ovarian = system: IGROV1 ovarian
SW-620 colon = system: SW-620 colon
MCF7 breast = system: MCF7 breast
A498 renal = system: A498 renal
SR leukemia = system: SR leukemia
NCI-H522 lung = system: NCI-H522 lung
MDA-MB-231 breast = system: MDA-MB-231 breast
ACHN renal = system: ACHN renal
T-47D breast = system: T-47D breast

## CCN(CC)CCOc1ccc2c(C)c(C(=O)OC)oc2c1C(=O)/C=C/c1ccc(OC)cc1
SK-OV-3 ovarian
  GI50: 4.12 µM
  TGI: 13.8 µM
OVCAR-8 ovarian
  GI50: 20.2 µM
  TGI: 40.1 µM
SK-MEL-5 melanoma
  GI50: 20.4 µM
  TGI: 37.2 µM
RXF 393 renal
  GI50: 13.8 µM
  TGI: 31.3 µM
UACC-62 melanoma
  GI50: 2240 nM
  TGI: 7.75 µM
DU-145 prostate
  GI50: 18.5 µM
  TGI: 34.7 µM
OVCAR-3 ovarian
  GI50: 4.36 µM
  TGI: 12.2 µM
LOX IMVI melanoma
  GI50: 1340 nM
  TGI: 2810 nM
UACC-257 melanoma
  GI50: 19.8 µM
  TGI: 36.9 µM
SF-295 CNS
  GI50: 6.76 µM
  TGI: 23.7 µM
EKVX NSCLC
  GI50: 19.7 µM
  TGI: 36.5 µM
CAKI-1 renal
  GI50: 3.82 µM
  TGI: 10.7 µM
CCRF-CEM leukemia
  GI50: 1350 nM
  TGI: 4.52 µM
SF-539 CNS
  GI50: 16.3 µM
  TGI: 32.2 µM
U251 CNS
  GI50: 1750 nM
  TGI: 4.44 µM
HCT-116 colon
  GI50: 57.8 µM
  TGI: > 100 µM
TK-10 renal
  GI50: 1940 nM
  TGI: 5.14 µM
HCT-15 colon
  GI50: 1310 nM
  TGI: 3.57 µM
SK-MEL-2 melanoma
  GI50: 9.99 µM
  TGI: > 23.2 µM
IGROV1 ovarian
  GI50: 246 nM
  TGI: 2750 nM
SW-620 colon
  GI50: 22.7 µM
  TGI: 47.7 µM
MCF7 breast
  GI50: 2760 nM
  TGI: > 22.7 µM
A498 renal
  GI50: 22.8 µM
  TGI: 44.4 µM
SR leukemia
  GI50: 565 nM
  TGI: 2950 nM
NCI-H522 lung
  GI50: 4.3 µM
  TGI: 15.2 µM
MDA-MB-231 breast
  GI50: 3.79 µM
  TGI: 11.2 µM
ACHN renal
  GI50: 1850 nM
  TGI: 5.25 µM
T-47D breast
  GI50: 12.9 µM
  TGI: 38.5 µM

— PubChem BioAssay (NCI)
